The text below walks through data of patent publication US5648347A, “Arylmorpholine, preparation and use” (Glaxo Wellcome Inc., priority 1991, dated 1997).

The subject of this assay is tetrabenazine-induced sedation. The experiment in a line: Antitetrabenazine Test: prevention of tetrabenazine-induced sedation in mice. Format: in vivo, Mouse (CD1 males). The following applies: 0.5 h; Antitetrabenazine Activity in the Mouse; compound ip 30 min before tetrabenazine hydrochloride (ip); scored 30 min after tetrabenazine; read-out: ED50 (amount of the test compound required to reverse the tetrabenazine effects in 50 percent of the animals tested). As to the method:
Prevention of tetrabenazine-induced sedation was measured using a modification of the method of Vernier et al., First Hahnemann Symposium on Psychosomatic Medicine, ed. Nodim and Moyer, pub. Lea and Febiger, Philadelphia, 1962.
Mice, groups of 12 CD1 males each, were injected intraperitoneally (ip) with the hydrochloride salt of a compound of formula (I) in physiological saline solution or with physiological saline solution alone. Thirty minutes later each of the mice was injected (ip, 35 mg/kg) with a solution of tetrabenazine hydrochloride. Thirty minutes after the injection of tetrabenazine each mouse was examined for its level of exploratory behavior which was scored on a modification of the arbitrary scale defined by Vernier et. al. The result reported in Table I as the ED50 value is the amount of the test compound required to reverse the tetrabenazine effects in 50 percent of the animals tested.

Molecules are shown by their SMILES. Structures can show the parent of a compound that is named as a salt.

Consider `C[C@@H]1[C@@H](c2ccc(F)cc2)OC[C@H](C)N1C` (relative stereo) [Example 18, (+-)-(2R*,3R*,5S*)-2-(4-fluorophenyl)-3,4,5-trimethylmorpholine], for which the ED50 came to 6 mg/kg.

Turning to `C[C@H]1CO[C@H](c2cccc(F)c2F)[C@@H](C)N1` (relative stereo) [Example 7, (+-)-(2R*,3R*,5S*)-2-(2,3-difluorophenyl)-3,5-dimethylmorpholine hydrochloride], the ED50 worked out at 4 mg/kg.

Consider `C[C@@H]1[C@@H](c2cccc(F)c2)OC[C@H](C)N1C` (relative stereo) [Example 14, (+-)-(2R*,3R*,5S*)-2-(3-fluorophenyl)-3,4,5-trimethylmorpholine hydrochloride], for which the ED50 was 8 mg/kg.

Consider `C[C@@H]1CO[C@@H](c2ccc(F)cc2)[C@H](C)N1` [Example 12, (2S,3S,5R)-2-(4-fluorophenyl)-3,5-dimethylmorpholine hydrochloride], for which the ED50 came out at 6 mg/kg.

Turning to `C[C@@H]1CO[C@@H](c2cccc(F)c2)[C@H](C)N1C` [Example 16, (2S,3S,5R)-2-(3-fluorophenyl)-3,4,5-trimethylmorpholine hydrochloride], the ED50 came out at 8 mg/kg.

With `C[C@@H]1CO[C@@H](c2ccc(F)c(F)c2)[C@H](C)N1.Cl` [Example 2, (2S,3S,5R)-2-(3,4-difluorophenyl)-3,5-dimethylmorpholine hydrochloride], the ED50 was 8 mg/kg.

Turning to `C[C@H]1CO[C@H](c2ccc(F)cc2)[C@@H](C)N1` [Example 6, (2R,3R,5S)-2-(4-fluorophenyl)-3,5-dimethylmorpholine hydrochloride], the ED50 was 10 mg/kg.

Regarding `C[C@H]1CO[C@H](c2ccc(F)cc2)[C@@H](C)N1` (relative stereo) [Example 13, (+-)-(2R*,3R*,5S*)-2-(4-fluorophenyl)-3,5-dimethylmorpholine hydrochloride], the ED50 came out at 4 mg/kg.

`C[C@H]1CO[C@H](c2cccc(F)c2)[C@@H](C)N1` (relative stereo) [Example 1, (+-)-(2R*,3R*,5S*)-2-(3-fluorophenyl)-3,5-dimethylmorpholine hydrochloride]: the ED50 stood at 4 mg/kg.
